Laboratory results reported in the Kinase Knowledgebase extract (Sharma et al. 2016).

The compounds below were run against MAPK14;MAPK11;MAPK12 (human) (UniProt Q16539) (assay: Inhibition of p38 Kinase Activity).

`Cc1cc2c(cc1Cl)C(=O)N2c1nc(N[C@H]2CCNC2)nc(N(C)CC(C)C)n1` and `Cc1ccc(COC(=O)C(F)(F)F)cc1Nc1nc(N[C@H]2CCNC2)nc(N(C)CC(C)C)n1` cannot be ordered by IC50: < 1000 nM for the first, < 1000 nM for the second.

`CC(C)CN(C)c1nc(Nc2cc(C(N)=O)ccc2C(F)(F)F)nc(N[C@H]2CCNC2)n1` and `Cc1ccc(C(N)=O)cc1Nc1nc(CCC(C)C)nc(N[C@H]2CCNC2)n1` cannot be ordered by IC50: < 1000 nM for the first, < 1000 nM for the second.

`CC(CNc1nc(Nc2ccc3ncsc3c2)nc(N2CC3CC2CN3C(=O)c2ccco2)n1)c1ccccc1` (stereo not given) and `CC(=O)N1CC2CC1CN2c1nc(NCC(C)c2ccccc2)nc(Nc2ccc3ncsc3c2)n1` (stereo not given) cannot be ordered by IC50: < 10000 nM for the first, < 10000 nM for the second.

`Cc1ccccc1NC(=O)N1CC2CC1CN2c1nc(NCC(C)c2ccccc2)nc(Nc2ccc3ncsc3c2)n1` (stereo not given) and `CNc1nc(NCC(C)c2ccccc2)nc(Nc2ccc3ncsc3c2)n1` (stereo not given) cannot be ordered by IC50: < 10000 nM for the first, < 10000 nM for the second.

`CNC(=O)c1ccc(C)c(Nc2nc(NC[C@H]3CCCN3)nc(N(C)CC(C)(C)C)n2)c1` and `CNC(=O)c1ccc(C)c(Nc2nc(N[C@H]3CCN(C(C)C)C3)nc(N(C)CC(C)(C)C)n2)c1` cannot be ordered by IC50: < 1000 nM for the first, < 1000 nM for the second.

`Cc1ccc(C(N)=O)cc1Nc1nc(N[C@@H]2CCNC2)nc(-c2cccc(Cl)c2)n1` and `Cc1ccc(C(N)=O)cc1Nc1nc(NC2CCc3ccccc32)nc(N[C@@H]2CCNC2)n1` (stereo not given in full) cannot be ordered by IC50: < 1000 nM for the first, < 1000 nM for the second.

`CN(CCN(C)c1nc(NCC2CCC3CC2C3(C)C)nc(Nc2ccc3ncccc3c2)n1)C(=O)CCC(=O)O` (stereo not given) and `CCOC(=O)N1CCN(c2nc(NC[C@@H]3CC[C@H]4C[C@@H]3C4(C)C)nc(Nc3ccc4ncsc4c3)n2)CC1` cannot be ordered by IC50: < 10000 nM for the first, < 10000 nM for the second.

`Cc1ccc(C(N)=O)cc1Nc1nc(N[C@@H]2CCN(C(C)C)C2)nc(N(C)CC(C)(C)C)n1` and `CCC(C)N1CC[C@@H](Nc2nc(Nc3cc(C(N)=O)ccc3C)nc(N(C)CC(C)(C)C)n2)C1` (stereo not given in full) cannot be ordered by IC50: < 1000 nM for the first, < 1000 nM for the second.

`O=C(O)CCC(=O)N1CCN(c2nc(Nc3ccc4ncsc4c3)nc(NC3CCc4ccccc43)n2)CC1` (stereo not given) and `CC1(C)[C@H]2CC[C@@H](CNc3nc(Nc4ccc5ncsc5c4)nc(N4CCNCC4)n3)[C@@H]1C2` cannot be ordered by IC50: < 10000 nM for the first, < 10000 nM for the second.

`CC(CNc1nc(Nc2ccc3ncsc3c2)nc(N(C)CCCN(C)C(=O)c2cccnc2)n1)c1ccccc1` (stereo not given) and `CC(CNc1nc(Nc2ccc3ncsc3c2)nc(N(C)CCCN(C)C(=N)N)n1)c1ccccc1` (stereo not given) cannot be ordered by IC50: < 10000 nM for the first, < 10000 nM for the second.

`NC(=O)c1ccc(N)c(Nc2nc(NC3CCNC3)nc(N3CCCC3)n2)c1` (stereo not given) and `Cc1ccc(C(N)=O)cc1Nc1nc(N[C@@H]2CCNC2)nc(N(C)C2CCCC2)n1` cannot be ordered by IC50: < 1000 nM for the first, < 1000 nM for the second.

`CC(CCCCCCNc1nc(NCC(C)c2ccccc2)nc(Nc2ccc3ncoc3c2)n1)C(N)=O` (stereo not given) and `CC(C)c1nc(NCC(C)c2ccccc2)nc(Nc2ccc3ncsc3c2)n1` (stereo not given) cannot be ordered by IC50: < 10000 nM for the first, < 10000 nM for the second.

`CONC(=O)c1ccc(F)c(Sc2nc(N[C@@H]3CCNC3)nc(N(C)CC(C)(C)C)n2)c1` and `Cc1ccc(C(=O)Nc2ccc(F)cc2)cc1Nc1nc(N[C@H]2CCNC2)nc(N(C)CC(C)(C)C)n1` cannot be ordered by IC50: < 30000 nM for the first, < 1000 nM for the second.

`Cc1ccc(C(N)=O)cc1Nc1nc(NCCC(C)(C)C)nc(N[C@@H]2CCNC2)n1` and `CCCCNc1nc(Nc2cc(C(N)=O)ccc2C)nc(N[C@H]2CCNC2)n1` cannot be ordered by IC50: < 1000 nM for the first, < 1000 nM for the second.

`Cc1ccc(C(N)=O)cc1Nc1nc(NCC23CC4CC(CC(C4)C2)C3)nc(N[C@H]2CCNC2)n1` and `Cc1ccc(C(N)=O)cc1Nc1nc(NCc2cccc3ccccc23)nc(N[C@@H]2CCNC2)n1` cannot be ordered by IC50: < 1000 nM for the first, < 1000 nM for the second.

`Cc1ccc(C(N)=O)cc1Nc1nc(N[C@H]2CCN(C(C)c3ccccn3)C2)nc(N(C)CC(C)C)n1` (stereo not given in full) and `Cc1ccc(C(N)=O)cc1Nc1nc(NC2CCCN(C(C)C)C2)nc(N(C)CC(C)C)n1` (stereo not given) cannot be ordered by IC50: < 1000 nM for the first, < 1000 nM for the second.

`Cc1ccc(C(N)=O)cc1Nc1nc(N[C@H]2CCN(C3CCCCC3)C2)nc(N(C)CC(C)C)n1` and `Cc1ccc(C(N)=O)cc1Nc1nc(N[C@H]2CCN(C3CCCCC3)C2)nc(N(C)CC(C)(C)C)n1` cannot be ordered by IC50: < 1000 nM for the first, < 1000 nM for the second.

`Cc1ccc2c(c1)ncn2-c1nc(NCCOC(C)C)cc(N(C)C)n1` and `COc1ccccc1CN1CC[C@@H](Nc2nc(Nc3cc(C(N)=O)ccc3C)nc(N(C)CC(C)C)n2)C1` cannot be ordered by IC50: < 10000 nM for the first, < 1000 nM for the second.

`Cc1ccc(-c2ncc[nH]2)cc1Nc1nc(N(C)CC(C)(C)C)nc(N2CCCN(C)CC2)n1` and `CCN1C[C@@H](Nc2nc(Nc3cc(C(N)=O)ccc3C)nc(N(C)CC(C)(C)C)n2)C[C@H]1C` cannot be ordered by IC50: < 1000 nM for the first, < 1000 nM for the second.

`O=S(=O)(Nc1ncccn1)c1ccc(Nc2nc(Cl)nc(NCCc3ccccc3)n2)cc1` and `Cc1ccc(C(=O)Nc2ccccc2)cc1Nc1nc(N[C@H]2CCNC2)nc(N(C)CC(C)(C)C)n1` cannot be ordered by IC50: < 10000 nM for the first, < 1000 nM for the second.

`Cc1cc2c(cc1Nc1nc(NCC(C)(C)C)nc(N[C@H]3CCNC3)n1)C(=O)NC2` and `Cc1ccc(CC2CC(Nc3nc(Nc4cc(C(N)=O)ccc4C)nc(N(C)CC(C)(C)C)n3)CN2)cc1` (stereo not given) cannot be ordered by IC50: < 1000 nM for the first, < 1000 nM for the second.

`Cc1ccc(C(N)=O)cc1Nc1nc(N[C@H]2CCN(Cc3ccccc3O)C2)nc(N(C)CC(C)C)n1` and `Cc1ccc(C(N)=O)cc1Nc1nc(O)nc(NC2CCCC2)n1` cannot be ordered by IC50: < 1000 nM for the first, < 1000 nM for the second.

For `CNC(=O)c1ccc(C)c(Oc2nc(NCc3ccccn3)nc(N(C)CC(C)(C)C)n2)c1`, the IC50 was < 30000 nM.
